# Reference: US20260271949A1, “PHOTOSENSITIZER COMPOSITIONS, DEVICES, AND METHODS OF USE FOR SURFACE SANITIZATION OF PROCESSED FOOD PRODUCTS” (ONDINE INTERNATIONAL AG, priority 2023, published 2026)
# Experiments:
# [1] = tested on: Salmonella enterica Serotype Choleraesuis (ATCC 10708); test: Planktonic MBC (turbidity assay), MBEC Assay challenge plate outgrowth; format: cell-based; conditions: S. enterica, PS alone, Blue 470 nm (Erythrosin B: Green 527 nm)
# [2] = tested on: S. enterica biofilms; test: MBEC (turbidity assay), biofilm recovery plate; format: cell-based, Salmonella enterica; conditions: Blue 470 nm (Erythrosin B: Green 527 nm)
# Procedure: (§1) The saturated bacterial cultures were diluted 1:10,000 to an approximate density of 10^5 CFU/mL. Density was confirmed by an inoculum check. The inoculum was poured into a sterile reagent reservoir. Using a multi-channel pipette, 200 μL of the ~105 inoculum was added to each well from rows A to G of the MBEC™ device, as indicated in FIGS. 2A-2C (12 devices per organism were tested; 4 devices per study day), 200 μL of OSB was added to row H to act as sterility controls (SC). The pegged lid was then placed into the microtiter plate and sealed in a plastic bag.
# (§2) The pegs of the MBEC lid were rinsed for 120 seconds.
# (§3) Using additional sterile 96-well receiver plates, recovery plates were prepared (one per MBEC lid) containing 225 μL per well of the neutralizer/recovery broth, as described above. The MBEC lids were transferred to the recovery broth, and the plates (with the pegged lids) were transferred into a stainless-steel insert tray, which sat in the water of a bath sonicator. Sonication was performed on high for 30 minutes to dislodge surviving biofilm. The pegged lid was then removed and discarded.
# (§4) 125 μL of OSB was added to each well of the recovery plates to top back up to 225 µL per well. The contents of the wells were mixed by pipetting up and down.
# [3] = tested on: MRSA biofilms; test: MBEC (turbidity assay), biofilm recovery plate; format: cell-based, Staphylococcus aureus; conditions: Blue 470 nm (Erythrosin B: Green 527 nm)
# Procedure: as §1, §2, §3, §4
# [4] = tested on: S. enterica biofilms; test: Quantitative determination of MBEC (Log10 reduction assay); format: cell-based, Salmonella enterica; conditions: for concentration of optimal efficacy: S. enterica biofilm; for Quant. MBEC / log 10 reduction in biofilm CFUs: S. enterica; for Quant. MBEC: >3 log10 reduction or max kill, PS alone, Blue 470 nm (Erythrosin B: Green 527 nm)
# Procedure: (§5) One hundred microlitres was removed from each well of row A of the recovery plate into row A of an appropriately labelled 96-well dilution plate; 100 μL was removed from row B of this recovery plate into row A of another 96-well dilution plate. This was repeated for other utilized MBEC rows (total: up to 8 dilution plates per MBEC recovery plate). These plates were kept for the “Quantitative Determination of MBEC (Log10 Reduction Assay)” described below.
# (§6) 180 μL of sterile 0.9% saline was added to each well of rows B-H of the 96-well dilution plates prepared as described above. The sample in row A was then serially diluted in the saline in rows B-H and spot plated on OSA.
# (§7) The quantitative MBEC was defined as the minimum concentration of test article that yielded a particular log 10 reduction in biofilm CFUs. For MRSA, >4 log 10 reduction (which corresponds to >99.99% reduction); for S. enterica, >3 log 10 reduction (which corresponds to >99.9% reduction) or, where recovery from the VC controls was <3 log 10, “max kill”.
# (§8) Quantitative MBEC results were determined using log 10 reduction. Generally, the appropriate number of colonies were counted on the spot plates according to the plating method used. An appropriate number of colonies that was considered appropriate for counting was a 20 μL spot where the individual colonies were visibly distinct from each other within the plated spot (typically 5-50 colonies). The section in which this spot was located gave the order of magnitude for the cell enumeration: 100-107.
# [5] = tested on: MRSA biofilms; test: as above; format: cell-based, Staphylococcus aureus; conditions: for concentration of optimal efficacy: MRSA biofilm; for Quant. MBEC / log 10 reduction in biofilm CFUs: MRSA; for Quant. MBEC: >4 log10 reduction, PS alone, Blue 470 nm (Erythrosin B: Green 527 nm)
# Procedure: as §5, §6, §7, §8
# [6] = Coloration of challenge plates under green irradiation; format: physicochemical; conditions: green irradiation 2, 5, 10 min vs dark, most evident for 0.01% and 0.001%
# Procedure: FIG. 5 provides representative photographs showing coloration of challenge plates for the Green-irradiated PS (Erythrosin B) under dark conditions and with green irradiation for 2 min, 5 min and 10 min. The highest tested concentration of Erythrosin B (i.e., 1% w/v) was beet red in color, with the 1:1,000 dilution (i.e., 0.001% w/v) yielding a light pink color and minimal coloration remaining by the 1:10,000 dilution (i.e., 0.0001% w/V) (FIG. 5; left).
# [7] = tested on: Staphylococcus aureus (MRSA) 456 S. Yanke; test: Planktonic MBC (turbidity assay), MBEC Assay challenge plate outgrowth; conditions: Blue 470 nm (Erythrosin B: Green 527 nm)
# [8] = fluence 0 (Dark) J/cm^2, PS alone
# [9] = PS at 0.01%, 10 minutes of green irradiation (51.0 J/cm^2)
# [10] = PS at 0.1%, 5 minutes of green irradiation (25.5 J/cm^2)
# [11] = Blue-irradiated, tested individually (FIG. 7 Panels A-C)
# [12] = Blue-irradiated, tested individually (FIG. 8 Panels A-C)
# [13] = PS at 0.1%, 5 minutes of blue irradiation (51.0 J/cm^2)
Structure (SMILES),MBC ([1]; fluence 0 (Dark) J/cm^2),MBC ([1]; fluence 10.2 J/cm^2),"MBEC [2, 8]","MBEC ([2]; fluence 10.2 J/cm^2, PS alone)","MBEC ([2]; fluence 25.5 J/cm^2, PS alone)","MBEC [3, 8]",Quant. MBEC ([4]; fluence 0 (Dark) J/cm^2),Quant. MBEC ([4]; fluence 10.2 J/cm^2),Quant. MBEC ([4]; fluence 25.5 J/cm^2),Quant. MBEC ([4]; fluence 51.0 J/cm^2),Quant. MBEC ([5]; fluence 0 (Dark) J/cm^2),Quant. MBEC ([5]; fluence 10.2 J/cm^2),MBC ([1]; fluence 25.5 J/cm^2),"MBEC ([3]; fluence 10.2 J/cm^2, PS alone)","MBEC ([3]; fluence 25.5 J/cm^2, PS alone)","concentration of optimal efficacy [4, 11]","concentration of optimal efficacy [5, 12]",Quant. MBEC ([5]; fluence 25.5 J/cm^2),Quant. MBEC ([5]; fluence 51.0 J/cm^2),"MBC [7, 8]",also measured
"O=C1OC2(c3ccccc31)c1cc(I)c(O)c(I)c1Oc1c2cc(I)c(O)c1I [PS4, Erythrosin B]",>1 % w/V,0.01 (Ø) % w/V,>1 % w/V,0.01 (Ø) % w/V,0.01 (Ø) % w/V,>1 % w/V,>1 % w/V,>1 % w/V,0.1 % w/V,0.01 % w/V,>1 % w/V,0.01 % w/V,,,,,,,,,"concentration of optimal efficacy ([4]; Green irradiation, 51.0 J/cm^2 (FIG. 9)): 0.01%; log 10 reduction in biofilm CFUs [4, 9]: max kill; log 10 reduction in biofilm CFUs [4, 10]: max kill; concentration of optimal efficacy ([5]; Green irradiation, 10.2 J/cm^2 (FIG. 9)): 0.01%; concentration of optimal efficacy ([5]; Green irradiation, 25.5 J/cm^2 (FIG. 9)): 0.1%; log 10 reduction in biofilm CFUs [5, 9]: max kill; log 10 reduction in biofilm CFUs [5, 10]: 5.28 log 10; coloration upon irradiation [6]: lost coloration with increasing irradiation time"
"COc1cc(/C=C/C(=O)CC(=O)/C=C/c2ccc(O)c(OC)c2)ccc1O [PS3, Curcumin]",>0.001 % w/V,>0.001 % w/V,>0.001 % w/V,>0.001 % w/V,>0.001 % w/V,>0.001 % w/V,>0.001 % w/V,>0.001 % w/V,>0.001 % w/V,0.0001 % w/V,>0.001 % w/V,>0.001 % w/V,>0.001 % w/V,>0.001 % w/V,>0.001 % w/V,0.0001 % w/v,0.001 % w/v,>0.001 % w/V,0.001 % w/V,>0.001 % w/V,"MBC ([1]; fluence 51.0 J/cm^2): >0.001 % w/V; MBEC ([2]; fluence 51.0 J/cm^2, PS alone): >0.001 % w/V; MBEC ([3]; fluence 51.0 J/cm^2, PS alone): >0.001 % w/V; MBC ([7]; fluence 10.2 J/cm^2, PS alone): >0.001 % w/V; MBC ([7]; fluence 25.5 J/cm^2, PS alone): >0.001 % w/V"
"Cc1cc2nc3c(=O)[nH]c(=O)nc-3n(C[C@H](O)[C@H](O)[C@H](O)COP(=O)([O-])O)c2cc1C.[Na+] [PS1, Riboflavin-5′-Phosphate Sodium USP]",>1 % w/V,>1 % w/V,>1 % w/V,>1 % w/V,>1 % w/V,>1 % w/V,>1 % w/V,>1 % w/V,>1 % w/V,0.1 % w/V,>1 % w/V,>1 % w/V,>1 % w/V,>1 % w/V,>1 % w/V,0.1 % w/v,0.1 % w/v,>1 % w/V,0.1 % w/V,>1 % w/V,"MBEC ([3]; fluence 51.0 J/cm^2, PS alone): 0.1 (Ø) % w/V; log 10 reduction in biofilm CFUs [4, 13]: max kill; log 10 reduction in biofilm CFUs [5, 13]: 5.36 log 10; MBC ([7]; fluence 10.2 J/cm^2, PS alone): >1 % w/V; MBC ([7]; fluence 25.5 J/cm^2, PS alone): 0.1 (Ø) % w/V"
"O=S(=O)([O-])c1ccc(N=Nc2c(O)ccc3cc(S(=O)(=O)[O-])ccc23)cc1.[Na+].[Na+] [PS2, Sunset Yellow FCF]",>1 % w/V,>1 % w/V,>1 % w/V,>1 % w/V,>1 % w/V,>1 % w/V,>1 % w/V,>1 % w/V,>1 % w/V,0.001 % w/V,>1 % w/V,>1 % w/V,>1 % w/V,>1 % w/V,>1 % w/V,0.001 % w/v,0.01 % w/v,>1 % w/V,0.01 % w/V,>1 % w/V,"MBC ([7]; fluence 10.2 J/cm^2, PS alone): >1 % w/V; MBC ([7]; fluence 25.5 J/cm^2, PS alone): >1 % w/V"
